Experimental data reported in the supplement of paper PMC4932681.

Experiments:
Test in all cases: viability inhibition at highest dose (% inhibition); higher = more growth inhibition
ZR-75-1 = settings: 72 h
Outline: (§1)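 After seeding into 384-well plates with library drugs at five concentrations spanning a 10 000-fold range, breast cancer cell lines and their resistant derivatives were incubated 72 h at 37 °C. Resistant lines received medium with 1 μM of the selecting drug. CellTiter-Glo signal was read on a PHERAstar and scaled to vehicle-only and positive controls. Drug sensitivity score, relative IC50 (the curve midpoint) and top-dose inhibition came from logistic fits run in the Breeze pipeline.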

MCF-7 Tam1 = settings: 4-OH-tamoxifen in medium 1 µM; 72 h
Outline: as §1

T-47D = settings: 72 h
Outline: as §1

T-47D Tam2 = settings: 4-OH-tamoxifen in medium 1 µM; 72 h
Outline: as §1

MCF-7 = settings: 72 h
Outline: as §1

BT-474 Tam2 = settings: 4-OH-tamoxifen in medium 1 µM; 72 h
Outline: as §1

T-47D Tam1 = settings: 4-OH-tamoxifen in medium 1 µM; 72 h
Outline: as §1

BT-474 = settings: 72 h
Outline: as §1

ZR-75-1 Tam1 = settings: 4-OH-tamoxifen in medium 1 µM; 72 h
Outline: as §1

ZR-75-1 Tam2 = settings: 4-OH-tamoxifen in medium 1 µM; 72 h
Outline: as §1

BT-474 Tam1 = settings: 4-OH-tamoxifen in medium 1 µM; 72 h
Outline: as §1

| SMILES | viability inhibition at highest dose (ZR-75-1; 4-OH-tamoxifen in medium 0 µM) | viability inhibition at highest dose (ZR-75-1; 4-OH-tamoxifen in medium 1 µM) | viability inhibition at highest dose (MCF-7 Tam1) | viability inhibition at highest dose (T-47D; 4-OH-tamoxifen in medium 0 µM) | viability inhibition at highest dose (T-47D; 4-OH-tamoxifen in medium 1 µM) | viability inhibition at highest dose (T-47D Tam2) | viability inhibition at highest dose (MCF-7; 4-OH-tamoxifen in medium 0 µM) | viability inhibition at highest dose (MCF-7; 4-OH-tamoxifen in medium 1 µM) | viability inhibition at highest dose (BT-474 Tam2) | viability inhibition at highest dose (T-47D Tam1) | viability inhibition at highest dose (BT-474; 4-OH-tamoxifen in medium 0 µM) | viability inhibition at highest dose (BT-474; 4-OH-tamoxifen in medium 1 µM) | viability inhibition at highest dose (ZR-75-1 Tam1) | viability inhibition at highest dose (ZR-75-1 Tam2) | viability inhibition at highest dose (BT-474 Tam1) |
| --- | --- | --- | --- | --- | --- | --- | --- | --- | --- | --- | --- | --- | --- | --- | --- |
| CC(C)(C)c1cc(NC(=O)Nc2ccc(-c3cn4c(n3)sc3cc(OCCN5CCOCC5)ccc34)cc2)no1 [Quizartinib (AC220)] (drug 1000 nM) | -17 | 8.56 | 3.09 | 11 | 9.31 | 15.8 | -2.81 | 6.24 | -5.01 | 11.5 | -0.626 | -13.2 | -2.41 | 5.08 | -3.77 |
| CO[C@H]1C[C@@H]2CC[C@@H](C)[C@@](O)(O2)C(=O)C(=O)N2CCCC[C@H]2C(=O)O[C@H]([C@H](C)C[C@@H]2CC[C@@H](OP(C)(C)=O)[C@H](OC)C2)CC(=O)[C@H](C)/C=C(\C)[C@@H](O)[C@@H](OC)C(=O)[C@H](C)C[C@H](C)/C=C/C=C/C=C/1C [Ridaforolimus] (drug 100 nM) | 37.8 | 30.1 | 17.7 | 33.4 | 21.6 | 28.2 | 49.7 | 37.1 | 22 | 33.3 | 19.8 | 6.43 | 35.9 | 39.5 | 23.2 |
| CS(=O)(=O)CCNCc1ccc(-c2ccc3ncnc(Nc4ccc(OCc5cccc(F)c5)c(Cl)c4)c3c2)o1 [Lapatinib] (drug 1000 nM) | 0.392 | -2.73 | 0.111 | 5.41 | -0.526 | 16.8 | 6.77 | 17.5 | 96.2 | 14.6 | 76.6 | 95.8 | 5.35 | -5.73 | 96.8 |
| c1cc(CN2CCCNCCNCCCNCC2)ccc1CN1CCCNCCNCCCNCC1 [Plerixafor] (drug 2500 nM) | -5.05 | 1.12 | -8.37 | -9.65 | -11.9 | 1.1 | -2.68 | 1.01 | 1.19 | 2.69 | 4.13 | -27.6 | 1.99 | 4.58 | 3.09 |
| C[C@]12CC[C@@H]3c4ccc(O)cc4C[C@@H](CCCCCCCCC[S+]([O-])CCCC(F)(F)C(F)(F)F)[C@H]3[C@@H]1CC[C@@H]2O (stereo not given in full) [Fulvestrant] (drug 1000 nM) | -18.5 | -4.88 | -0.218 | 1.98 | -1.62 | 8.69 | 31.4 | 17.5 | 4.97 | 12.9 | -5.27 | -0.276 | -1.86 | -6.33 | -6.25 |
| CCN(CC)CCNC(=O)c1c(C)[nH]c(/C=C2\C(=O)Nc3ccc(F)cc32)c1C (drug 1000 nM) | 5.31 | -5.7 | 7.78 | -6.3 | 13.4 | 3.79 | -3.88 | -9.09 | 1.68 | 6.06 | -3.86 | 33.8 | -5.76 | 2.39 | 13.8 |
